Data reported in US11932624B2, “MDM2 degraders and uses thereof” (Kymera Therapeutics, Inc., priority 2020, dated 2024).

Test system: RS411 cells
Assay: Cell Viability CTG Assay (CellTiter Glo) in RS411 cells
Type: cell-based
Settings: Homo sapiens, RS4-11, 24 h, duration 1 day
Method: Example 23. Cell Viability CTG Assay
Day 0: Compounds or DMSO 60 nL were stamped to the cell plate as the platemap. RS411 cells were centrifuged at 800 rpm for 5 min, suspended with culture medium, and counted with Countess (Invitrogen). The cell density was adjusted to the recommend information. 30 μL of cell solution (1000 cells/well) was added to the assay plate as the platemap and 30 uL of media was added to column 2 and column 23 as the platemap. The plate was spun down briefly. The final concentration of the compounds started at 10 μM (3 fold dilution and 11 doses) and final DMSO concentration was 0.2%. The plate was spun down briefly and incubated at 37° C., 5% CO2 for 1-4 days.
30 μL CellTiter Glo reagent was added to each well and the plate was centrifuged at 1000 rpm for 30 sec. The plate was shaken for 1 min and centrifuged at 1000 rpm for 30 sec. The plate was incubated at RT for 10 min to stabilize the luminescent signal and the luminescence was read by EnVision.
The letter codes for IC50 indicate the concentration of compound required to affect 50% of cells: A (<0.05 μM), B (0.05-0.1 μM), C (0.1-0.5 μM), D (0.5-1.0 μM), and E (>1.0 μM).

IC50 | SMILES
< 50 nM | CCN1[C@@H](C(=O)NC23CCC(C(=O)NCCCCCc4ccc5c(c4)n(C)c(=O)n5C4CCC(=O)NC4=O)(CC2)CC3)[C@H](c2cccc(Cl)c2F)[C@]2(C(=O)Nc3cc(Cl)ccc32)C12CCCCC2 (some centres unmarked) [I-42]
< 50 nM | Cn1c(=O)n(C2CCC(=O)NC2=O)c2cccc(C#CCOC3CCN(C(=O)c4ccc(NC(=O)[C@@H]5NC6(CCCCC6)[C@@]6(C(=O)Nc7cc(Cl)ccc76)[C@H]5c5cccc(Cl)c5F)cc4)CC3)c21 (stereo partly drawn) [I-43, (3′R,4'S,5′R)-6″-chloro-4′-(3-chloro-2-fluorophenyl)-N-(4-(4-((3-(1-(2,6-dioxopiperidin-3-yl)-3-methyl-2-oxo-2,3-dihydro-1H-benzo[d]imidazol-4-yl)prop-2-yn-1-yl)oxy)piperidine-1-carbonyl)phenyl)-2″-oxodispiro[cyclohexane-1,2′-pyrrolidine-3′,3″-indoline]-5′-carboxamide]
< 50 nM | Cn1c(=O)n(C2CCC(=O)NC2=O)c2cccc(OC3CC4(CCN(C(=O)c5ccc(NC(=O)[C@@H]6NC7(CCCCC7)[C@@]7(C(=O)Nc8cc(Cl)ccc87)[C@H]6c6cccc(Cl)c6F)cc5)CC4)C3)c21 (some centres unmarked) [I-44]
100 to 500 nM | CN(C(=O)c1ccc(NC(=O)[C@@H]2NC3(CCCCC3)[C@@]3(C(=O)Nc4cc(Cl)ccc43)[C@H]2c2cccc(Cl)c2F)cc1)C1CCC2(CC1)CC(Cc1cccc3c1n(C)c(=O)n3C1CCC(=O)NC1=O)C2 (some centres unmarked) [I-45]

Same assay, conditions: Homo sapiens, RS4-11, 72 h, duration 3 days

IC50 | SMILES
100 to 500 nM | CC(C)[C@@H](CS(=O)(=O)C(C)C)N1C(=O)[C@@](C)(CC(=O)Nc2ccc(C(=O)NCCCC#Cc3cccc4c3CN(C3CCC(=O)NC3=O)C4=O)cc2)C[C@H](c2cccc(Cl)c2)[C@H]1c1ccc(Cl)cc1 (some centres unmarked) [I-27]
< 50 nM | COc1cc(C(=O)NCCCCCc2cccc3c2n(C)c(=O)n3C2CCC(=O)NC2=O)ccc1NC(=O)[C@@H]1N[C@@H](CC(C)(C)C)[C@](C#N)(c2ccc(Cl)cc2F)[C@H]1c1cccc(Cl)c1F (some centres unmarked) [I-28]

Same assay, conditions: Homo sapiens, RS4-11, 96 h, duration 4 days

SMILES | IC50
CC(C)[C@@H](CS(=O)(=O)C(C)C)N1C(=O)[C@@](C)(CC(=O)Nc2ccc(C(=O)NCCCOCCCN)cc2)C[C@H](c2cccc(Cl)c2)[C@H]1c1ccc(Cl)cc1 [I-5, N-[3-(3-aminopropoxy)propyl]-4-[[2-[(3R,5R,6S)-5-(3-chlorophenyl)-6-(4-chlorophenyl)-1-[(1S)-1-(isopropylsulfonylmethyl)-2-methyl-propyl]-3-methyl-2-oxo-3-piperidyl]acetyl]amino]benzamide] | > 1000 nM
CC(C)[C@@H](CS(=O)(=O)C(C)C)N1C(=O)[C@@](C)(CC(=O)Nc2ccc(C(=O)NCCOCCOCCOCCNc3cccc4c3C(=O)N(C3CCC(=O)NC3=O)C4=O)cc2)C[C@H](c2cccc(Cl)c2)[C@H]1c1ccc(Cl)cc1 (stereo partly drawn) [I-6, 4-[[2-[(3R,5R,6S)-5-(3-chlorophenyl)-6-(4-chlorophenyl)-1-[(1S)-1-(isopropylsulfonylmethyl)-2-methyl-propyl]-3-methyl-2-oxo-3-piperidyl]acetyl]amino]-N-[2-[2-[2-[2-[[2-(2,6-dioxo-3-piperidyl)-1,3-dioxo-isoindolin-4-yl]amino]ethoxy]ethoxy]ethoxy]ethyl]benzamide] | 100 to 500 nM
COc1cc(C(=O)NCCCOCCCN)ccc1NC(=O)[C@@H]1N[C@@H](CC(C)(C)C)[C@](C#N)(c2ccc(Cl)cc2F)[C@H]1c1cccc(Cl)c1F [I-7] | > 1000 nM
CC(C)[C@@H](CS(=O)(=O)C(C)C)N1C(=O)[C@@](C)(CC(=O)Nc2ccc(C(=O)NCCCCCCCNC(=O)c3ccc(NC(=O)C[C@@]4(C)C[C@H](c5cccc(Cl)c5)[C@@H](c5ccc(Cl)cc5)N([C@H](CS(=O)(=O)C(C)C)C(C)C)C4=O)cc3)cc2)C[C@H](c2cccc(Cl)c2)[C@H]1c1ccc(Cl)cc1 [I-8, 4-[2-[(3R,5R,6S)-5-(3-chlorophenyl)-6-(4-chlorophenyl)-3-methyl-1-[(2S)-3-methyl-1-(propane-2-sulfonyl)butan-2-yl]-2-oxopiperidin-3-yl]acetamido]-N-[7-[(4-[2-[(3R,5R,6S)-5-(3-chlorophenyl)-6-(4-chlorophenyl)-3-methyl-1-[(2S)-3-methyl-1-(propane-2-sulfonyl)butan-2-yl]-2-oxopiperidin-3-yl]acetamido]phenyl)formamido]heptyl]benzamide] | > 1000 nM
Cc1ncsc1-c1ccc(CNC(=O)[C@@H]2C[C@@H](O)CN2C(=O)[C@@H](NC(=O)CCCCCCCNC(=O)C[C@@]2(C)C[C@H](c3cccc(Cl)c3)[C@@H](c3ccc(Cl)cc3)N([C@H](CS(=O)(=O)C(C)C)C(C)C)C2=O)C(C)(C)C)cc1 [I-10] | 100 to 500 nM
Cc1ncsc1-c1ccc(CNC(=O)[C@@H]2C[C@@H](O)CN2C(=O)[C@@H](NC(=O)CCCNC(=O)C[C@@]2(C)C[C@H](c3cccc(Cl)c3)[C@@H](c3ccc(Cl)cc3)N([C@H](CS(=O)(=O)C(C)C)C(C)C)C2=O)C(C)(C)C)cc1 [I-11] | > 1000 nM
Cc1ncsc1-c1ccc(CNC(=O)[C@@H]2C[C@@H](O)CN2C(=O)[C@@H](NC(=O)CCCCCCCNC(=O)c2ccc(NC(=O)[C@@H]3NC4(CCCCC4)[C@@]4(C(=O)Nc5cc(Cl)ccc54)[C@H]3c3cccc(Cl)c3F)cc2)C(C)(C)C)cc1 [I-12] | 50 to 100 nM
Cc1ncsc1-c1ccc(CNC(=O)[C@@H]2C[C@@H](O)CN2C(=O)[C@@H](NC(=O)CCCNC(=O)c2ccc(NC(=O)[C@@H]3NC4(CCCCC4)[C@@]4(C(=O)Nc5cc(Cl)ccc54)[C@H]3c3cccc(Cl)c3F)cc2)C(C)(C)C)cc1 [I-13] | 500 to 1000 nM
COc1cc(C(=O)NCCCCCCCC(=O)N[C@H](C(=O)N2C[C@H](O)C[C@H]2C(=O)NCc2ccc(-c3scnc3C)cc2)C(C)(C)C)ccc1NC(=O)[C@@H]1N[C@@H](CC(C)(C)C)[C@](C#N)(c2ccc(Cl)cc2F)[C@H]1c1cccc(Cl)c1F [I-19] | < 50 nM
COc1cc(C(=O)NCCCC(=O)N[C@H](C(=O)N2C[C@H](O)C[C@H]2C(=O)NCc2ccc(-c3scnc3C)cc2)C(C)(C)C)ccc1NC(=O)[C@@H]1N[C@@H](CC(C)(C)C)[C@](C#N)(c2ccc(Cl)cc2F)[C@H]1c1cccc(Cl)c1F [I-20] | 100 to 500 nM
CC(C)[C@@H](CS(=O)(=O)C(C)C)N1C(=O)[C@@](C)(CC(=O)NCCCCCCCCc2ccc3c(c2)n(C)c(=O)n3C2CCC(=O)NC2=O)C[C@H](c2cccc(Cl)c2)[C@H]1c1ccc(Cl)cc1 (some centres unmarked) [I-21] | 50 to 100 nM
CC(C)[C@@H](CS(=O)(=O)C(C)C)N1C(=O)[C@@](C)(CC(=O)NCCCCCCCCCCCNC(=O)C[C@@]2(C)C[C@H](c3cccc(Cl)c3)[C@@H](c3ccc(Cl)cc3)N([C@H](CS(=O)(=O)C(C)C)C(C)C)C2=O)C[C@H](c2cccc(Cl)c2)[C@H]1c1ccc(Cl)cc1 [I-23] | > 1000 nM
CC(C)[C@@H](CS(=O)(=O)C(C)C)N1C(=O)[C@@](C)(CC(=O)NCCCCCCC#Cc2cccc3c2CN(C2CCC(=O)NC2=O)C3=O)C[C@H](c2cccc(Cl)c2)[C@H]1c1ccc(Cl)cc1 (some centres unmarked) [I-26] | 50 to 100 nM
COc1cc(C(=O)NCCCCCCCCNC(=O)c2ccc(NC(=O)[C@@H]3N[C@@H](CC(C)(C)C)[C@](C#N)(c4ccc(Cl)cc4F)[C@H]3c3cccc(Cl)c3F)c(OC)c2)ccc1NC(=O)[C@@H]1N[C@@H](CC(C)(C)C)[C@](C#N)(c2ccc(Cl)cc2F)[C@H]1c1cccc(Cl)c1F [I-32] | 100 to 500 nM
COc1cc(C(=O)NCCOCCOCCNC(=O)c2ccc(NC(=O)[C@@H]3N[C@@H](CC(C)(C)C)[C@](C#N)(c4ccc(Cl)cc4F)[C@H]3c3cccc(Cl)c3F)c(OC)c2)ccc1NC(=O)[C@@H]1N[C@@H](CC(C)(C)C)[C@](C#N)(c2ccc(Cl)cc2F)[C@H]1c1cccc(Cl)c1F [I-33] | > 1000 nM

The next lines start with the values.

IC50 | SMILES
50 to 100 nM | CCOc1cc(C(C)(C)C)ccc1C1=N[C@@H](c2ccc(Cl)cc2)[C@@H](c2ccc(Cl)cc2)N1C(=O)N1CCN(CC#Cc2cccc3c2CN(C2CCC(=O)NC2=O)C3=O)CC1 (stereo partly drawn) [I-4, 3-[4-[3-[4-[(4S,5R)-2-(4-tert-butyl-2-ethoxy-phenyl)-4,5-bis(4-chlorophenyl)-4,5-dihydroimidazole-1-carbonyl]piperazin-1-yl]prop-1-ynyl]-1-oxo-isoindolin-2-yl]piperidine-2,6-dione]
< 50 nM | Cn1c(=O)n(C2CCC(=O)NC2=O)c2ccc(CCCCCNC(=O)c3ccc(NC(=O)[C@@H]4NC5(CCCCC5)[C@@]5(C(=O)Nc6cc(Cl)ccc65)[C@H]4c4cccc(Cl)c4F)cc3)cc21 (some centres unmarked) [I-9]
< 50 nM | CC(C)[C@@H](CS(=O)(=O)C(C)C)N1C(=O)[C@@](C)(CC(=O)Nc2ccc(C(=O)NCCCCCc3ccc4c(c3)n(C)c(=O)n4C3CCC(=O)NC3=O)cc2)C[C@H](c2cccc(Cl)c2)[C@H]1c1ccc(Cl)cc1 (some centres unmarked) [I-14]
< 50 nM | COc1cc(C(=O)NCCCCCc2ccc3c(c2)n(C)c(=O)n3C2CCC(=O)NC2=O)ccc1NC(=O)[C@@H]1N[C@@H](CC(C)(C)C)[C@](C#N)(c2ccc(Cl)cc2F)[C@H]1c1cccc(Cl)c1F (some centres unmarked) [I-16]
< 50 nM | COc1cc(C(=O)NCCCC#Cc2ccc3c(c2)n(C)c(=O)n3C2CCC(=O)NC2=O)ccc1NC(=O)[C@@H]1N[C@@H](CC(C)(C)C)[C@](C#N)(c2ccc(Cl)cc2F)[C@H]1c1cccc(Cl)c1F (some centres unmarked) [I-17]
< 50 nM | O=C1CCC(N2Cc3c(C#CCCCNC(=O)c4ccc(NC(=O)[C@@H]5NC6(CCCCC6)[C@@]6(C(=O)Nc7cc(Cl)ccc76)[C@H]5c5cccc(Cl)c5F)cc4)cccc3C2=O)C(=O)N1 (some centres unmarked) [I-29]
< 50 nM | COc1cc(C(=O)NCCCC#Cc2cccc3c2n(C)c(=O)n3C2CCC(=O)NC2=O)ccc1NC(=O)[C@@H]1N[C@@H](CC(C)(C)C)[C@](C#N)(c2ccc(Cl)cc2F)[C@H]1c1cccc(Cl)c1F (some centres unmarked) [I-30]
< 50 nM | COc1cc(C(=O)NCCCC#Cc2cccc3c2CN(C2CCC(=O)NC2=O)C3=O)ccc1NC(=O)[C@@H]1N[C@@H](CC(C)(C)C)[C@](C#N)(c2ccc(Cl)cc2F)[C@H]1c1cccc(Cl)c1F (some centres unmarked) [I-31]
